Values of other authors, collected in patent US20050025804A1, “Reduction of adverse inflammation” (priority 2003, published 2005).

Settings: peroxynitrite decomposition catalyst

| Compound | rate constant |
| --- | --- |
| CC(=O)[O-].Cc1c(-c2c3nc(c(-c4c(C)c(S(=O)(=O)[O-])c(C)c(S(=O)(=O)[O-])c4C)c4ccc([n-]4)c(-c4c(C)c(S(=O)(=O)[O-])c(C)c(S(=O)(=O)[O-])c4C)c4nc(c(-c5c(C)c(S(=O)(=O)[O-])c(C)c(S(=O)(=O)[O-])c5C)c5ccc2[n-]5)C=C4)C=C3)c(C)c(S(=O)(=O)[O-])c(C)c1S(=O)(=O)[O-].[Fe+3].[Na+].[Na+].[Na+].[Na+].[Na+].[Na+].[Na+].[Na+] [Fe(III)TMPS, acetato-5,10,15,20-tetrakis(3,5-disulfonatomesityl) porphyrin iron (III) octasodium salt] | 2.06e+06 M⁻¹ s⁻¹ |
| acetato (5,10,15,20-tetrakis(N-methyl-4-pyridyl)porphinato) iron (III) tetratosylate [Fe(III)TMPyP] | 2.75e+06 M⁻¹ s⁻¹ |
